We go through four molecules from PMC10931740, “Uncovering the Role of Hydroxycinnamoyl Transferase in Boosting Chlorogenic Acid Accumulation in Carthamus tinctorius Cells under Methyl Jasmonate Elicitation” (International Journal of Molecular Sciences, 2024).

The experiment deals with T1, CtHCT (CtNewGene_3476), recombinant hydroxycinnamoyl transferase.
T1 construct: gene HCT; HXXXD 156-160, DFGWG 379-383
The experiment in a line: HPLC product assay, Lineweaver-Burk. Format: biochemical, Carthamus tinctorius. To be noted: pH 7.5, 35 °C, 1 mM Cu2+. The text has this:
HPLC product assay, Lineweaver-Burk on CtHCT (CtNewGene_3476), recombinant hydroxycinnamoyl transferase

As a reminder, the Km is the concentration of substrate that gives half-maximal velocity.

For the molecule `O=C(O)C1=C[C@@H](O)[C@@H](O)[C@H](O)C1` [SkA, Shikimic acid], under “saturating p-coumaroyl-CoA”, the Km was 18.4 µM.

Turning to `CC(C)(COP(=O)(O)OP(=O)(O)OC[C@H]1O[C@@H](n2cnc3c(N)ncnc32)[C@H](O)[C@@H]1OP(=O)(O)O)[C@@H](O)C(=O)NCCC(=O)NCCSC(=O)/C=C/c1ccc(O)cc1` [p-CoCOA, p-Coumaroyl-CoA], the Km (saturating quinic acid) is 9.41 µM.

Take `CC(C)(COP(=O)(O)OP(=O)(O)OC[C@H]1O[C@@H](n2cnc3c(N)ncnc32)[C@H](O)[C@@H]1OP(=O)(O)O)[C@@H](O)C(=O)NCCC(=O)NCCSC(=O)/C=C/c1ccc(O)c(O)c1` [C-COA, Caffeoyl-CoA]: the Km (saturating quinic acid) worked out at 32.6 µM.

Take `O=C(O)[C@]1(O)C[C@@H](O)[C@@H](O)[C@H](O)C1` [QA, Quinic acid]: for the setting “saturating p-coumaroyl-CoA”, the Km came to 7.11 µM.
